Reference: patent publication US5902826A, “Platinum (IV) complex and pharmaceutical composition comprising the same” (SS Pharmaceutical Co., Ltd., priority 1997, dated 1999)

Experiments:
[1] = background statement, derivative of cisplatin; cited from earlier work
[2] = test system: mouse M5076 tumor (M5076 reticulosarcoma); experiment: Antitumor effect on mouse M5076 tumor (M5076 reticulosarcoma), s.c.-p.o.; format: in vivo; settings: for TI (therapeutic index): calculated from LD50 (single i.p.) and ID50 (p.o.); for dosage of GImax (in parentheses): dosage giving GImax, no mortal case; for dosage of GImax (in parentheses) / ID50 (dosage by which the GI value after 5 administrations shows 50%): p.o. once a day for 5 days; for GImax (maximum growth inhibition rate in the dosage range by which no mortal case can be found): male BDF1 mouse, 1×10^6 cells s.c., drug p.o. once a day for 5 days, 30 days of observation, average tumor weights vs non-treated group; for ID50 (dosage by which the GI value after 5 administrations shows 50%): calculated from linear regression line of GI at each dosage
Procedure: Test on antitumor effect on mouse M5076 tumor
A total of 1×10^6 cells of mouse M5076 tumor were transplanted subcutaneously (s.c.) of a 6-week age male BDF1 mouse, a drug (compound of the present invention) was administered orally (p.o.) once a day for 5 days starting on the next day and then, after 30 days of observation, growth inhibition rate (GI) was calculated from the average tumor weights in the drug-treated group and the non-treated group. […] Each of the drugs to be tested was prepared just before its use by dissolving or suspending the drug (compound of the present invention) in olive oil using a handy sonicator. The dosage was 0.1 ml per 10 g mouse body weight. In Table 1, GImax is the maximum value (%) of GI in the dosage range by which no mortal case can be found, and its dosage (mg/kg) is shown in parentheses.

[3] = LD50 (50% lethal dose by single intraperitoneal administration); format: in vivo, mouse; settings: 50% lethal dose by single intraperitoneal administration, obtained at the time of dose setting
[4] = background statement, cited from earlier work

Compound | solubility in water [1] | TI (therapeutic index) [2] | dosage of GImax (in parentheses) [2] | GImax (maximum growth inhibition rate in the dosage range by which no mortal case can be found) [2] | ID50 (dosage by which the GI value after 5 administrations shows 50%) [2] | LD50 [3] | renal toxicity ([4]; derivative of cisplatin) | nephropathy as a side effect [4]
N.N.O=C([O-])C1(C(=O)[O-])CCC1.[Pt+2] [Carboplatin, carboplatin, reference compound] | increased solubility in water | 2.0 | 256.0 mg/kg | 75.3% | 119.9 mg/kg | 245.0 mg/kg | reduced renal toxicity | 
O=C(OC1C[NH2+][Pt-2]2([O]C(=O)C(F)(F)F)([O]C(=O)C(F)(F)F)([NH2+]C1)[O]C(=O)C1(CCC1)C(=O)[O]2)C(F)(F)F (stereo not drawn) [Compound 11, 1,1-cyclobutanedicarboxylato trans-bis(trifluoroacetato) (O-trifluoroacetyl-1,3-diamino-2-propanol)platinum (IV)] |  | 17.3 | 32.0 mg/kg | 86.5% | 10.2 mg/kg | 176.5 mg/kg |  | 
O=C([O][Pt-2]12([O]C(=O)C(F)(F)F)([NH2+]CC(O)C[NH2+]1)[O]C(=O)C1(CCC1)C(=O)[O]2)C(F)(F)F (stereo not drawn) [Compound 18, 1,1-cyclobutanedicarboxylato trans-bis(trifluoroacetato) (1,3-diamino-2-propanol)platinum (IV)] |  | 18.4 | 32.0 mg/kg | 95.6% | 9.6 mg/kg | 176.8 mg/kg |  | 
1,1-cyclobutanedicarboxylato trans-dihydroxo (1,3-diamino-2-propanol)platinum (IV) [Compound 1] |  | > 25.0 | 32.0 mg/kg | 95.6% | < 8.0 mg/kg | > 200.0 mg/kg |  | 
trans-bis (acetato) 1,1-cyclobutanedicarboxylato (1,3-diamino-2-propanol) platinum (IV) [Compound 5] |  | 9.2 | 64.0 mg/kg | 61.4% | 38.4 mg/kg | 353.0 mg/kg |  | 
N.N.[Cl][Pt][Cl] [Cisplatin, cisplatin, reference compound] |  |  | 8.0 mg/kg | 74.5% | 3.2 mg/kg |  |  | sometimes causes serious nephropathy
